# Measured values as given in patent US20230181614A1, “ADMINISTRATION OF CITICOLINE TO IMPROVE COGNITIVE PERFORMANCE, ATTENTIONAL PERFORMANCE, AND MOTOR FUNCTION” (KYOWA HAKKO BIO CO., LTD., priority 2014, published 2023).
# What was measured:
# [1] = system: Healthy subjects, ages 13-18; test: Wisconsin Card Sorting Task (WCST); format: in vivo, human; details: Visit 3
# Source text: Study participants were screened by telephone prior to study enrollment. Healthy subjects, ages 13-18, with no significant medical conditions and no history of co-morbid psychiatric disorder, current Axis I or II diagnosis, or previous participation in a pharmacotherapeutic trial, were selected. Use of any psychotropic medication or any previous head injury resulting in loss of consciousness for 5 or more minutes were used as exclusion criteria. While no participant met criteria for a neuropsychiatric disorder at enrollment, clinical assessments were still completed throughout the study to evaluate changes in mood state. In addition, self-reports of sleep habits, lifestyle, and exercise routines were also administered at baseline as well as at each study visit to assess changes in health habits during study participation. Following the completion of Visit 1 assessment, participants were given their 28-day supply of citicoline (250 mg or 500 mg) or placebo, which was randomly assigned. They were instructed to take one capsule a day every day for the next 28 days. Visit 2 occurred fourteen days after Visit 1. At Visit 2, the remaining study pills were counted and participant dosage calendars were checked to ensure compliance with the protocol. Additional neuropsychological measures and clinical assessments were administered during this visit. Participants returned for Visit 3 fourteen days later, on the 28th day of their study participation. The pill bottle and the dosage calendar were collected from each participant. Urine and blood were again obtained. Participants also participated in similar clinical and neuropsychological testing and clinical measures that were given during visit 1. The WCST assess a person’s ability to form abstract concepts, utilize feedback, and to shift and maintain set. […] The WCST involves 4 stimulus cards that vary in color, geometric form, and number. Without knowing the criterion, participants are asked to match cards from a deck to the stimulus cards. After the participant places each card, they are told whether they are correct or incorrect and should change the element they are matching based on this feedback. […] The WCST was given on the third visit of the study.
# [2] = system: Healthy subjects, ages 13-18; test: ADHD Rating Scale (ARS); format: in vivo, human; parameters: scale not given here
# Source text: Study participants were screened by telephone prior to study enrollment. Healthy subjects, ages 13-18, with no significant medical conditions and no history of co-morbid psychiatric disorder, current Axis I or II diagnosis, or previous participation in a pharmacotherapeutic trial, were selected. Use of any psychotropic medication or any previous head injury resulting in loss of consciousness for 5 or more minutes were used as exclusion criteria. While no participant met criteria for a neuropsychiatric disorder at enrollment, clinical assessments were still completed throughout the study to evaluate changes in mood state. In addition, self-reports of sleep habits, lifestyle, and exercise routines were also administered at baseline as well as at each study visit to assess changes in health habits during study participation. Following the completion of Visit 1 assessment, participants were given their 28-day supply of citicoline (250 mg or 500 mg) or placebo, which was randomly assigned. They were instructed to take one capsule a day every day for the next 28 days. Visit 2 occurred fourteen days after Visit 1. At Visit 2, the remaining study pills were counted and participant dosage calendars were checked to ensure compliance with the protocol. Additional neuropsychological measures and clinical assessments were administered during this visit. Participants returned for Visit 3 fourteen days later, on the 28th day of their study participation. The pill bottle and the dosage calendar were collected from each participant. Urine and blood were again obtained. Participants also participated in similar clinical and neuropsychological testing and clinical measures that were given during visit 1. The ARS is a questionnaire assessing the frequency of DSM-IV-TR symptoms of ADHD in children including inattention, impulsivity, and hyperactivity. The scale was administered at each of the three visits to assess presence or absence of ADHD symptoms.
compound,measurement,setting,value
"C[N+](C)(C)CCOP(=O)(O)OP(=O)([O-])OC[C@H]1O[C@@H](n2ccc(N)nc2=O)[C@H](O)[C@@H]1O [citicoline, Cytidine 5′-diphosphocholine]",WCST V3 Number of Categories Achieved (Mean),[1]; 250 mg/day group,5.69
same,WCST V3 Number of Trials to Complete Category (Mean),[1]; 250 mg/day group,71.15
same,WCST V3 Number of Trials to Get into Category (Mean),[1]; 250 mg/day group,15.19
same,WCST V3 Total Cards Used (Mean),[1]; 250 mg/day group,90.88
same,WCST V3 Total Errors (Mean),[1]; 250 mg/day group,19.73
same,WCST V3 Total Perseverative Errors (Mean),[1]; 250 mg/day group,8.54
same,WCST V3 Number of Categories Achieved (Mean),[1]; 500 mg/day group,5.87
same,WCST V3 Number of Trials to Complete Category (Mean),[1]; 500 mg/day group,70.57
same,WCST V3 Number of Trials to Get into Category (Mean),[1]; 500 mg/day group,13.78
same,WCST V3 Total Cards Used (Mean),[1]; 500 mg/day group,89.57
same,WCST V3 Total Errors (Mean),[1]; 500 mg/day group,19.00
same,WCST V3 Total Perseverative Errors (Mean),[1]; 500 mg/day group,9.13
same,"ARS Impulsivity, Mean","[2]; 250 mg/day, V1 (baseline)",1.44
same,"ARS Inattention, Mean","[2]; 250 mg/day, V1 (baseline)",1.30
same,"ARS Impulsivity, Mean","[2]; 250 mg/day, V3 (day 28)",0.85
same,"ARS Inattention, Mean","[2]; 250 mg/day, V3 (day 28)",1.56
same,"ARS Impulsivity, Mean","[2]; 250 mg/day, V3-V1",-0.59
same,"ARS Inattention, Mean","[2]; 250 mg/day, V3-V1",0.26
same,"ARS Impulsivity, Mean","[2]; 500 mg/day, V1 (baseline)",0.88
same,"ARS Inattention, Mean","[2]; 500 mg/day, V1 (baseline)",0.50
same,"ARS Impulsivity, Mean","[2]; 500 mg/day, V3 (day 28)",0.38
same,"ARS Inattention, Mean","[2]; 500 mg/day, V3 (day 28)",0.38
same,"ARS Inattention, Mean","[2]; 500 mg/day, V3-V1",-0.13
